Reference: patent US9822114B2, “Tricyclic oxazolidinone antibiotic compounds” (Idorsia Pharmaceuticals Ltd, priority 2008, dated 2017)
≈ marks a conversion by molar mass, not a printed value.

System: M. catarrhalis A894
Assay: Minimal inhibitory concentration (MIC), microdilution method in cation-adjusted Mueller-Hinton Broth (CLSI M7-A7)
Format: cell-based
Settings: strain A894; for MIC: Moraxella catarrhalis
Procedure: Minimal inhibitory concentrations (MICs; mg/1) were determined in cation-adjusted Mueller-Hinton Broth by a microdilution method following the description given in “Methods for Dilution Antimicrobial Susceptibility Tests for Bacteria that Grow Aerobically”, Approved standard, 7th ed., Clinical and Laboratory Standards Institute (CLSI) Document M7-A7, Wayne, Pa., USA, 2006.

For `O=C1CSc2ccc(N3C[C@@H](CCNC[C@H]4Cn5c(=O)ccc6nccc4c65)OC3=O)cc2N1` [Example 76, (S)-4-({2-[(R)-2-oxo-3-(3-oxo-3,4-dihydro-2H-benzo[1,4]thiazin-6-yl)-oxazolidin-5-yl]-ethylamino}-methyl)-4,5-dihydro-pyrrolo[3,2,1-de][1,5]naphthyridin-7-one], which MIC is on record?
The MIC was at most 0.031 mg/L.

For `O=C1CSc2ccc(N3C[C@@H](CNCC4Cn5c(=O)ccc6cccc4c65)OC3=O)cc2N1` (mixture of isomers) [Example 63, (RS)-1-({[(R)-2-oxo-3-(3-oxo-3,4-dihydro-2H-benzo[1,4]thiazin-6-yl)-oxazolidin-5-ylmethyl]-amino}-methyl)-1,2-dihydro-pyrrolo[3,2,1-ij]quinolin-4-one], which MIC is on record?
The MIC was 0.031 mg/L.

Which MIC does the source give for `O=C1O[C@@H](CCNC2Cn3c(=O)ccc4ccc(F)c2c43)CN1c1ccc2c(c1)OCCO2` (mixture of isomers) [Example 107, (RS)-1-{2-[(S)-3-(2,3-dihydro-benzo[1,4]dioxin-6-yl)-2-oxo-oxazolidin-5-yl]-ethylamino}-9-fluoro-1,2-dihydro-pyrrolo[3,2,1-ij]quinolin-4-one] here?
The MIC was 8 mg/L.

With `O=C1O[C@H](CCNCC2Cn3c(=O)ccc4ccc(F)c2c43)CN1c1ccc2c(c1)OCCO2` (mixture of isomers) [Example 46, (RS)-1-({2-[(R)-3-(2,3-dihydro-benzo[1,4]dioxin-6-yl)-2-oxo-oxazolidin-5-yl]-ethylamino}-methyl)-9-fluoro-1,2-dihydro-pyrrolo[3,2,1-ij]quinolin-4-one] as the compound, how does the MIC read?
The MIC was at most 0.031 mg/L.

Which MIC does the source give for `O=C1COc2ccc(N3C[C@@H](CCNC[C@@H]4Cn5c(=O)ccc6ccc(F)c4c65)OC3=O)nc2N1` (racemic) [Example 47, (RS)-9-fluoro-1-({2-[(RS)-2-oxo-3-(3-oxo-3,4-dihydro-2H-pyrido[3,2-b][1,4]oxazin-6-yl)-oxazolidin-5-yl]-ethylamino}-methyl)-1,2-dihydro-pyrrolo[3,2,1-ij]quinolin-4-one] here?
The MIC was at most 0.031 mg/L.

`Cc1ccc(N2C[C@@H](CNCCC3CN4C(=O)CCc5ccc(F)c3c54)OC2=O)cc1F` (mixture of isomers) [Example 27, (1RS)-9-fluoro-1-(2-{[(R)-3-(3-fluoro-4-methyl-phenyl)-2-oxo-oxazolidin-5-ylmethyl]-amino}-ethyl)-1,2,5,6-tetrahydro-pyrrolo[3,2,1-ij]quinolin-4-one] was tested. Which MIC did it give?
Its MIC is 0.5 mg/L.

For `O=C1CSc2ccc(N3C[C@H](CCCN[C@H]4Cn5c(=O)ccc6c(CO)ccc4c65)OC3=O)cc2N1` [Example 120, (R)-7-hydroxymethyl-1-{3-[(S)-2-oxo-3-(3-oxo-3,4-dihydro-2H-benzo[1,4]thiazin-6-yl)-oxazolidin-5-yl]-propylamino}-1,2-dihydro-pyrrolo[3,2,1-ij]quinolin-4-one], which MIC is on record?
The MIC was 0.125 mg/L (≈ 0.247 µM).

`O=C1COc2ccc(N3C[C@H](CCNCC4Cn5c(=O)cnc6cccc4c65)OC3=O)cc2N1` (mixture of isomers) [Example 154, (RS)-6-({2-[(S)-2-oxo-3-(3-oxo-3,4-dihydro-2H-benzo[1,4]oxazin-6-yl)-oxazolidin-5-yl]-ethylamino}-methyl)-5,6-dihydro-pyrrolo[1,2,3-de]quinoxalin-3-one] was tested. Which MIC did it give?
The MIC was at most 0.031 mg/L.

Which MIC does the source give for `N#Cc1ccc2ccc(=O)n3c2c1C(NCCC[C@@H]1CN(c2ccc4c(c2)NC(=O)CS4)C(=O)O1)C3` (mixture of isomers) [Example 117, (RS)-4-oxo-1-{3-[(R)-2-oxo-3-(3-oxo-3,4-dihydro-2H-benzo[1,4]thiazin-6-yl)-oxazolidin-5-yl]-propylamino}-1,2-dihydro-4H-pyrrolo[3,2,1-ij]quinoline-9-carbonitrile] here?
Its MIC is at most 0.031 mg/L.

How did the “MIC for M. catarrhalis A894” value turn out when “(1R,2R)-2-hydroxymethyl-1-{3-[(R)-2-oxo-3-(3-oxo-3,4-dihydro-2H-benzo[1,4]thiazin-6-yl)-oxazolidin-5-yl]-propylamino}-1,2-dihydro-pyrrolo[3,2,1-ij]quinolin-4-one and (1S,2S)-2-hydroxymethyl-1-{3-[(R)-2-oxo-3-(3-oxo-3,4-dihydro-2H-benzo[1,4]thiazin-6-yl)-oxazolidin-5-yl]-propylamino}-1,2-dihydro-pyrrolo[3,2,1-ij]quinolin-4-one [Example 163]” was run?
Its value is 0.031 mg/L.

With `O=C1CSc2ccc(N3C[C@@H](CCCNCC4Cn5c(=O)ccc6ccc(F)c4c65)OC3=O)cc2N1` (mixture of isomers) [Example 51, (RS)-9-fluoro-1-({3-[(R)-2-oxo-3-(3-oxo-3,4-dihydro-2H-benzo[1,4]thiazin-6-yl)-oxazolidin-5-yl]-propylamino}-methyl)-1,2-dihydro-pyrrolo[3,2,1-ij]quinolin-4-one] as the compound, how does the MIC read?
The MIC was at most 0.031 mg/L.

Which “MIC for M. catarrhalis A894” value does the source give for “(1R,2S)-2-methyl-1-{3-[(S)-2-oxo-3-(3-oxo-3,4-dihydro-2H-pyrido[3,2-b][1,4]thiazin-6-yl)-oxazolidin-5-yl]-propylamino}-1,2-dihydro-pyrrolo[3,2,1-ij]quinolin-4-one and (1S,2R)-2-methyl-1-{3-[(S)-2-oxo-3-(3-oxo-3,4-dihydro-2H-pyrido[3,2-b][1,4]thiazin-6-yl)-oxazolidin-5-yl]-propylamino}-1,2-dihydro-pyrrolo[3,2,1-ij]quinolin-4-one [Example 169]” here?
Its value is “≦0.031 mg/l”.

Which MIC does the source give for `O=C1O[C@H](CCNC[C@@H]2Cn3c(=O)ccc4ccc(F)c2c43)CN1c1cc2c(cn1)OCCO2` (racemic) [Example 42, (RS)-1-({2-[(RS)-3-(2,3-dihydro-[1,4]dioxino[2,3-c]pyridin-7-yl)-2-oxo-oxazolidin-5-yl]-ethylamino}-methyl)-9-fluoro-1,2-dihydro-pyrrolo[3,2,1-ij]quinolin-4-one] here?
The MIC was 2 mg/L (≈ 4.29 µM).

How did the MIC turn out when `O=C1CSc2ccc(N3C[C@H](CCCN[C@@H]4Cn5c(=O)cnc6ccc(F)c4c65)OC3=O)cc2N1` [Example 79, (S)-7-fluoro-6-{3-[(S)-2-oxo-3-(3-oxo-3,4-dihydro-2H-benzo[1,4]thiazin-6-yl)-oxazolidin-5-yl]-propylamino}-5,6-dihydro-pyrrolo[1,2,3-de]quinoxalin-3-one] was run?
Its MIC is at most 0.031 mg/L.

With `O=C1COc2ccc(N3C[C@H](CCCN[C@@H]4Cn5c(=O)cnc6ccc(F)c4c65)OC3=O)cc2N1` [Example 80, (S)-7-fluoro-6-{3-[(S)-2-oxo-3-(3-oxo-3,4-dihydro-2H-benzo[1,4]oxazin-6-yl)-oxazolidin-5-yl]-propylamino}-5,6-dihydro-pyrrolo[1,2,3-de]quinoxalin-3-one] as the compound, how does the MIC read?
The MIC was at most 0.031 mg/L.

How did the MIC turn out when `O=C1CSc2ccc(N3C[C@H](CCCN[C@@H]4Cn5c(=O)ccc6cccc4c65)OC3=O)cc2N1` [Example 85, (S)-1-{3-[(S)-2-oxo-3-(3-oxo-3,4-dihydro-2H-benzo[1,4]thiazin-6-yl)-oxazolidin-5-yl]-propylamino}-1,2-dihydro-pyrrolo[3,2,1-ij]quinolin-4-one] was run?
Its MIC is at most 0.031 mg/L.

How did the MIC turn out when `Cc1ccc(N2C[C@@H](CNCCC3Cn4c(=O)ccc5ccc(F)c3c54)OC2=O)cc1F` (mixture of isomers) [Example 11, (1RS)-9-fluoro-1-(2-{[(R)-3-(3-fluoro-4-methyl-phenyl)-2-oxo-oxazolidin-5-ylmethyl]-amino}-ethyl)-1,2-dihydro-pyrrolo[3,2,1-ij]quinolin-4-one] was run?
Its MIC is 0.063 mg/L.

`O=C1O[C@@H](CCNCC2Cn3c(=O)ccc4ccc(F)c2c43)CN1c1ccc2c(c1)OCCO2` (mixture of isomers) [Example 60, (RS)-1-({2-[(S)-3-(2,3-dihydro-benzo[1,4]dioxin-6-yl)-2-oxo-oxazolidin-5-yl]-ethylamino}-methyl)-9-fluoro-1,2-dihydro-pyrrolo[3,2,1-ij]quinolin-4-one] was tested. Which MIC did it give?
Its MIC is at most 0.031 mg/L.

`O=C1CSc2ccc(N3C[C@@H](CCCN[C@H]4Cn5c(=O)ccc6ncc(F)c4c65)OC3=O)cc2N1` [Example 138, (R)-3-fluoro-4-{3-[(R)-2-oxo-3-(3-oxo-3,4-dihydro-2H-benzo[1,4]thiazin-6-yl)-oxazolidin-5-yl]-propylamino}-4,5-dihydro-pyrrolo[3,2,1-de][1,5]naphthyridin-7-one] was tested. Which MIC did it give?
The MIC was at most 0.031 mg/L.

With `CN1CC(=O)N2CC(NCCC[C@@H]3CN(c4ccc5c(n4)NC(=O)CS5)C(=O)O3)c3c(F)ccc1c32.Cl.Cl` (mixture of isomers) [Example 201, (RS)-7-fluoro-6-{3-[(R)-2-oxo-3-(3-oxo-3,4-dihydro-2H-pyrido[3,2-b][1,4]thiazin-6-yl)-oxazolidin-5-yl]-propylamino}-1-methyl-1,2,5,6-tetrahydro-pyrrolo[1,2,3-de]quinoxalin-3-one dihydrochloride] as the compound, how does the MIC read?
Its MIC is at most 0.031 mg/L.

`O=C1CSc2ccc(N3C[C@@H](CCCN(CCO)C4Cn5c(=O)ccc6ccc(F)c4c65)OC3=O)cc2N1` (mixture of isomers) [Example 93, (RS)-9-fluoro-1-((2-hydroxy-ethyl)-{3-[(R)-2-oxo-3-(3-oxo-3,4-dihydro-2H-benzo[1,4]thiazin-6-yl)-oxazolidin-5-yl]-propyl}-amino)-1,2-dihydro-pyrrolo[3,2,1-ij]quinolin-4-one] was tested. Which MIC did it give?
Its MIC is at most 0.031 mg/L.

With `O=C1COc2ccc(N3C[C@@H](CCCNC4Cn5c(=O)ccc6ccc(F)c4c65)OC3=O)cc2N1` (mixture of isomers) [Example 12, (1RS)-9-fluoro-1-{3-[(R)-2-oxo-3-(3-oxo-3,4-dihydro-2H-benzo[1,4]oxazin-6-yl)-oxazolidin-5-yl]-propylamino}-1,2-dihydro-pyrrolo[3,2,1-ij]quinolin-4-one] as the compound, how does the MIC read?
Its MIC is at most 0.031 mg/L.

How did the “MIC for M. catarrhalis A894” value turn out when “(1R,2S)-2-methyl-1-{3-[(S)-2-oxo-3-(3-oxo-3,4-dihydro-2H-benzo[1,4]thiazin-6-yl)-oxazolidin-5-yl]-propylamino}-1,2-dihydro-pyrrolo[3,2,1-ij]quinolin-4-one and (1S,2R)-2-methyl-1-{3-[(S)-2-oxo-3-(3-oxo-3,4-dihydro-2H-benzo[1,4]thiazin-6-yl)-oxazolidin-5-yl]-propylamino}-1,2-dihydro-pyrrolo[3,2,1-ij]quinolin-4-one [Example 167]” was run?
The value was “≦0.031 mg/l”.

Which MIC does the source give for `O=C1CSc2ccc(N3C[C@H](CCCN[C@H]4Cn5c(=O)ccc6c(CN7CCCC7)ccc4c65)OC3=O)cc2N1` [Example 123, (R)-1-{3-[(S)-2-oxo-3-(3-oxo-3,4-dihydro-2H-benzo[1,4]thiazin-6-yl)-oxazolidin-5-yl]-propylamino}-7-pyrrolidin-1-ylmethyl-1,2-dihydro-pyrrolo[3,2,1-ij]quinolin-4-one] here?
Its MIC is 0.125 mg/L (≈ 0.223 µM).
